According to ChEMBL document CHEMBL2203257 (Bioorg Med Chem Lett, 2012):

Assays:
[1] = Clearance in cynomolgus monkey; assay type: ADME, organism-based, Macaca fascicularis; details: in vivo
[2] = biological target: 5'-AMP-activated protein kinase catalytic subunit alpha-2 (Homo sapiens, UniProt P54646); test: Inhibition of PRKAA2
[3] = biological target: Dual specificity mitogen-activated protein kinase kinase 5 (Homo sapiens, UniProt Q13163); test: Inhibition of MAP2K5
[4] = AUC in rat […] at 5 mg/kg, po; 1 mg/kg, iv; assay type: ADME, organism-based
[5] = biological target: Cyclin-dependent kinase 6 (Homo sapiens, UniProt Q00534); test: Inhibition of CDK6
[6] = biological target: Protein kinase C theta type (Homo sapiens, UniProt Q04759); test: Inhibition of PRKCQ
[7] = biological target: Interleukin-1 receptor-associated kinase 3 (Homo sapiens, UniProt Q9Y616); test: Inhibition of IRAK3
[8] = Cmax in mouse at 3 mg/kg, po BID; assay type: ADME, organism-based; parameters: dose 3 mg/kg, route oral; details: in vivo
[9] = biological target: Cyclin-dependent kinase 9 (Homo sapiens, UniProt P50750); test: Inhibition of CDK9
[10] = biological target: Phosphatidylinositol 4-kinase alpha (Homo sapiens, UniProt P42356); test: Inhibition of PIK4Ca
Mus musculus [11] = test: Antiarthritic activity against collagen-induced arthritis mouse model assessed as inhibition of disease progression at 10 mg/kg, po BID for 14 days; assay type: functional; details: 336 h
[12] = biological target: Cyclin-G-associated kinase (Homo sapiens, UniProt O14976); test: Inhibition of GAK
[13] = biological target: Tyrosine-protein kinase Lyn (Homo sapiens, UniProt P07948); test: Inhibition of LYN
[14] = Volume of distribution at steady state […] at 5 mg/kg, po; 1 mg/kg, iv; assay type: ADME, organism-based; details: read-out: Vdss
Mus musculus [15] = test: Antiarthritic activity against collagen-induced arthritis mouse model assessed as mean clinical arthritis score with AUC calculation in at 0.01 mg/kg, po BID for 14 days; assay type: functional
[16] = biological target: Serine/threonine-protein kinase TAO3 (Homo sapiens, UniProt Q9H2K8); test: Inhibition of TAOK3
[17] = biological target: Fibroblast growth factor receptor 1 (Homo sapiens, UniProt P11362); test: Inhibition of FGFR1
[18] = biological target: Dual specificity testis-specific protein kinase 2 (Homo sapiens, UniProt Q96S53); test: Inhibition of TESK2
[19] = biological target: Tyrosine-protein kinase JAK2 (Homo sapiens, UniProt O60674); test: Inhibition of JAK2
[20] = biological target: Tyrosine-protein kinase CSK (Homo sapiens, UniProt P41240); test: Inhibition of CSK
Aurora kinase A = Aurora kinase A (Homo sapiens, UniProt O14965); test: Inhibition of AURKA
[21] = biological target: Casein kinase I isoform delta (Homo sapiens, UniProt P48730); test: Inhibition of CSNK1D
Activin receptor type-1 = Activin receptor type-1 (Homo sapiens, UniProt Q04771); test: Inhibition of ACVR1
[22] = biological target: Calcium/calmodulin-dependent protein kinase type II subunit gamma (Homo sapiens, UniProt Q13555); test: Inhibition of CAMK2G
[23] = biological target: Phosphatidylinositol 4,5-bisphosphate 3-kinase catalytic subunit gamma isoform (Homo sapiens, UniProt P48736); test: Inhibition of PIK3Cg
Chain of Phosphatidylinositol 4,5-bisphosphate 3-kinase catalytic subunit gamma isoform (P48736 whole entry, canonical isoform): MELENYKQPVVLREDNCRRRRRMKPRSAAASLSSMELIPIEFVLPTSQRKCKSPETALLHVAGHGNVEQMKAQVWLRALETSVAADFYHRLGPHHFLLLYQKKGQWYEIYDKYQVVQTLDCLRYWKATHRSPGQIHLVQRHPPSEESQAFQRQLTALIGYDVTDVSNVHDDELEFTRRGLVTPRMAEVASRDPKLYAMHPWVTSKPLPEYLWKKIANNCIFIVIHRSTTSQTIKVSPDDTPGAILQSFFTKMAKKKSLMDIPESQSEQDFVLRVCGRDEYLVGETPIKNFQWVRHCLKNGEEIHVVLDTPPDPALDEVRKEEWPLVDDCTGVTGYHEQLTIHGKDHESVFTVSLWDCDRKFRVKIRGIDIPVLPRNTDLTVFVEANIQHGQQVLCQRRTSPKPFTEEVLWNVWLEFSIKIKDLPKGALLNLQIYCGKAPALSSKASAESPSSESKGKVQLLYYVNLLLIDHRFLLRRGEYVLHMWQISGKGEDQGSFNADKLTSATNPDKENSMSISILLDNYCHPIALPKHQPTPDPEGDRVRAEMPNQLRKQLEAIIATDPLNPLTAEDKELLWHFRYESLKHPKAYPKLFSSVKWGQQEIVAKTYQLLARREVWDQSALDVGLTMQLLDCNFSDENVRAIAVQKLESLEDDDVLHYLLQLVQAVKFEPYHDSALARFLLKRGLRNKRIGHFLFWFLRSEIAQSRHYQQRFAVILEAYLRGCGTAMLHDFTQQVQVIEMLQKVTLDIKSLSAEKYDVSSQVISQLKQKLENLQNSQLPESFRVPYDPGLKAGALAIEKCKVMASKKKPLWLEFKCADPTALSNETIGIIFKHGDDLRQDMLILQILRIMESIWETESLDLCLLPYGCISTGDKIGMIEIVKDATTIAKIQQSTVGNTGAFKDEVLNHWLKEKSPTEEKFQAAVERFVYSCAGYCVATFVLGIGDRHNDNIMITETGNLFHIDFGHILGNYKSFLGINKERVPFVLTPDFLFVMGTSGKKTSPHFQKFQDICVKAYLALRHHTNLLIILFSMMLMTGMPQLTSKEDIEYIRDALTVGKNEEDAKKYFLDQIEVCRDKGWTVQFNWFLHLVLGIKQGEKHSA

[24] = biological target: Tyrosine-protein kinase Fes/Fps (Homo sapiens, UniProt P07332); test: Inhibition of FES
Chain of Tyrosine-protein kinase Fes/Fps (P07332 whole entry): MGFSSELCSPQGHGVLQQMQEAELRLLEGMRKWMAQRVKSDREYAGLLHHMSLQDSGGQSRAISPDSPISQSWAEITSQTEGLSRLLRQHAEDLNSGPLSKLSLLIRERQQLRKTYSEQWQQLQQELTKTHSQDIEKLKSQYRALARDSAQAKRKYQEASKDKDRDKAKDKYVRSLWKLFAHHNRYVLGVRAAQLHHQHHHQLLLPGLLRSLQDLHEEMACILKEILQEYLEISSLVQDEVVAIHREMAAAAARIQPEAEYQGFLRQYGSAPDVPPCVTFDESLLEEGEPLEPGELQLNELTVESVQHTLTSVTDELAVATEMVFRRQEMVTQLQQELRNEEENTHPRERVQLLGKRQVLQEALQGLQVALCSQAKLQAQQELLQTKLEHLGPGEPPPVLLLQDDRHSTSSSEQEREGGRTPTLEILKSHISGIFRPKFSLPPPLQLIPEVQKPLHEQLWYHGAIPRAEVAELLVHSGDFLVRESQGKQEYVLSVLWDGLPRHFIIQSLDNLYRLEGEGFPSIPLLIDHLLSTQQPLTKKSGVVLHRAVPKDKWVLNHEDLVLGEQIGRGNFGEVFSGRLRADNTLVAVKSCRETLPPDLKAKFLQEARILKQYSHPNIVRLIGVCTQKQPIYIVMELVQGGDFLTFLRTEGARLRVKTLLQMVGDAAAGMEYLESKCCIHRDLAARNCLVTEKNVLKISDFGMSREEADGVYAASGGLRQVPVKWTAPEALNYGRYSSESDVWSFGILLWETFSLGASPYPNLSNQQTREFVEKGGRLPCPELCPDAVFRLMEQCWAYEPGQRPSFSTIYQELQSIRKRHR

[25] = biological target: Mitogen-activated protein kinase kinase kinase kinase 3 (Homo sapiens, UniProt Q8IVH8); test: Inhibition of MAP4K3
Chain of Mitogen-activated protein kinase kinase kinase kinase 3 (Q8IVH8 whole entry): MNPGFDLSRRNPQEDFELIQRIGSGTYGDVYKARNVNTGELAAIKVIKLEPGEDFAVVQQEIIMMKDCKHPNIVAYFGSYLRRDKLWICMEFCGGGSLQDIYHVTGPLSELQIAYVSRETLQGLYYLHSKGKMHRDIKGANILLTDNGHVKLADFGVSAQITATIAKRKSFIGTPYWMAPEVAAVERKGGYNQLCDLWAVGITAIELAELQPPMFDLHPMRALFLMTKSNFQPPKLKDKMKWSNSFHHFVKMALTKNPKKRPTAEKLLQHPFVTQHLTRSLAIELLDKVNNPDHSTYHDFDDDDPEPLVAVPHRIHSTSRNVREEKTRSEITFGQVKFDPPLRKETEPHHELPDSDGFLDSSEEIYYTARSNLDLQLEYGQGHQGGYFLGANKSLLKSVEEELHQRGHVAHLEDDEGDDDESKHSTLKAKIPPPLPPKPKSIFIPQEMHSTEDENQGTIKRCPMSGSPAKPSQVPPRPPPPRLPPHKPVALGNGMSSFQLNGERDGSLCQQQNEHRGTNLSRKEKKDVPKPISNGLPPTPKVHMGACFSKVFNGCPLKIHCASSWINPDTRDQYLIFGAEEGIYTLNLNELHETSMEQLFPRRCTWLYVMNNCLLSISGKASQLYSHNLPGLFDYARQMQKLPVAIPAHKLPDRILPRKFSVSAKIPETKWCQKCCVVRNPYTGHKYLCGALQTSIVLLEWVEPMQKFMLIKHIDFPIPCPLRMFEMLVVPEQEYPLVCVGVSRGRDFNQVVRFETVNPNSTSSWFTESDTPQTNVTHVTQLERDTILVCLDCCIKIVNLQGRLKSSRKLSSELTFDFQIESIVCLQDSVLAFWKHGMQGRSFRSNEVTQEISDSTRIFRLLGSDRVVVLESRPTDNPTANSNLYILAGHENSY

[26] = biological target: Ribosomal protein S6 kinase alpha-5 (Homo sapiens, UniProt O75582); test: Inhibition of RPS6KA5
[27] = Cmax in rat […] at 5 mg/kg, po; 1 mg/kg, iv; assay type: ADME, organism-based
[28] = biological target: Serine/threonine-protein kinase N1 (Homo sapiens, UniProt Q16512); test: Inhibition of PKN1
[29] = biological target: Epithelial discoidin domain-containing receptor 1 (Homo sapiens, UniProt Q08345); test: Inhibition of DDR1
Cytochrome P450 3A4 = Cytochrome P450 3A4 (Homo sapiens, UniProt P08684); test: Inhibition of CYP3A4 at >20 uM; assay type: ADME
[30] = biological target: Serine/threonine-protein kinase 4 (Homo sapiens, UniProt Q13043); test: Inhibition of STK4
[31] = biological target: Tyrosine-protein kinase ABL1 (Homo sapiens, UniProt P00519); test: Inhibition of ABL1
[32] = biological target: Serine/threonine-protein kinase mTOR (Homo sapiens, UniProt P42345); test: Inhibition of mTOR
[33] = biological target: Serine/threonine-protein kinase 17B (Homo sapiens, UniProt O94768); test: Inhibition of STK17B
[34] = biological target: Serine/threonine-protein kinase RIO2 (Homo sapiens, UniProt Q9BVS4); test: Inhibition of RIOK2
[35] = biological target: Tyrosine-protein kinase Lck (Homo sapiens, UniProt P06239); test: Inhibition of LCK
[36] = biological target: Ribosomal protein S6 kinase alpha-4 (Homo sapiens, UniProt O75676); test: Inhibition of RPS6KA4
[37] = biological target: Bromodomain-containing protein 4 (Homo sapiens, UniProt O60885); test: Inhibition of BRD4
[38] = biological target: Casein kinase II subunit alpha' (Homo sapiens, UniProt P19784); test: Inhibition of CSNK2A2
[39] = biological target: Atypical kinase COQ8B, mitochondrial (Homo sapiens, UniProt Q96D53); test: Inhibition of ADCK4
Wee1-like protein kinase = Wee1-like protein kinase (Homo sapiens, UniProt P30291); test: Inhibition of WEE1
[40] = biological target: Casein kinase I isoform gamma-3 (Homo sapiens, UniProt Q9Y6M4); test: Inhibition of CSNK1G3
Chain of Casein kinase I isoform gamma-3 (Q9Y6M4 whole entry, canonical isoform): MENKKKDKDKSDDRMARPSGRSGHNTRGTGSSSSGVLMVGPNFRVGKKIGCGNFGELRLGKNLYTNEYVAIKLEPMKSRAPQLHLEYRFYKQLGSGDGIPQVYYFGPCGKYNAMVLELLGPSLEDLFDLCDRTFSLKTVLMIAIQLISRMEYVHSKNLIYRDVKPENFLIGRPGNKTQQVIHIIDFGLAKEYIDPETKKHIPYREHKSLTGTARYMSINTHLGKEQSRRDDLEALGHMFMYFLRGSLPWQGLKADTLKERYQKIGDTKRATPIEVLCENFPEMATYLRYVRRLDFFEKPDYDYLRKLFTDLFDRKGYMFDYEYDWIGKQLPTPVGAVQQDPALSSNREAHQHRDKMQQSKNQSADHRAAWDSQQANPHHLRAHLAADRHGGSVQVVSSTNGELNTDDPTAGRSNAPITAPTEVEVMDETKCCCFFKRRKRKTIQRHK

[41] = biological target: Cyclin-dependent kinase 2 (Homo sapiens, UniProt P24941); test: Inhibition of CDK2
Cytochrome P450 2D6 = Cytochrome P450 2D6 (Homo sapiens, UniProt P10635); test: Inhibition of CYP2D6 at >20 uM; assay type: ADME
Chain of Cytochrome P450 2D6 (P10635 whole entry, the tested form may be a part): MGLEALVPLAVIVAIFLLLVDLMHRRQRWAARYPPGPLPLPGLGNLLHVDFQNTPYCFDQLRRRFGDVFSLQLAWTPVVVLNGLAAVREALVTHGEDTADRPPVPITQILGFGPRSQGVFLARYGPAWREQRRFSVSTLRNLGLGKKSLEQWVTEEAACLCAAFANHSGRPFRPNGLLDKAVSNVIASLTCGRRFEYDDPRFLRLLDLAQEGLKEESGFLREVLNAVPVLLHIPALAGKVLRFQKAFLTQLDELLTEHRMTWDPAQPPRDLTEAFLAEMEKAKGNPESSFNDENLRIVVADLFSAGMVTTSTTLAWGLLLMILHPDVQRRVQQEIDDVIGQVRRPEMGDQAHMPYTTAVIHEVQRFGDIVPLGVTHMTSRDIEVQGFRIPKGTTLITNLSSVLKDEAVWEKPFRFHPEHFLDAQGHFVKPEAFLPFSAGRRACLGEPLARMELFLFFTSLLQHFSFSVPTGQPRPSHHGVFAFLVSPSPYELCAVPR

LIM domain kinase 2 = LIM domain kinase 2 (Homo sapiens, UniProt P53671); test: Inhibition of LIMK2
Activin receptor type-1B = Activin receptor type-1B (Homo sapiens, UniProt P36896); test: Inhibition of ACVR1B
[42] = biological target: Serine/threonine-protein kinase A-Raf (Homo sapiens, UniProt P10398); test: Inhibition of ARAF
[43] = biological target: Serine/threonine-protein kinase MARK2 (Homo sapiens, UniProt Q7KZI7); test: Inhibition of MARK2
[44] = biological target: Mitogen-activated protein kinase 8 (Homo sapiens, UniProt P45983); test: Inhibition of MAPK8
Chain of Mitogen-activated protein kinase 8 (P45983 whole entry): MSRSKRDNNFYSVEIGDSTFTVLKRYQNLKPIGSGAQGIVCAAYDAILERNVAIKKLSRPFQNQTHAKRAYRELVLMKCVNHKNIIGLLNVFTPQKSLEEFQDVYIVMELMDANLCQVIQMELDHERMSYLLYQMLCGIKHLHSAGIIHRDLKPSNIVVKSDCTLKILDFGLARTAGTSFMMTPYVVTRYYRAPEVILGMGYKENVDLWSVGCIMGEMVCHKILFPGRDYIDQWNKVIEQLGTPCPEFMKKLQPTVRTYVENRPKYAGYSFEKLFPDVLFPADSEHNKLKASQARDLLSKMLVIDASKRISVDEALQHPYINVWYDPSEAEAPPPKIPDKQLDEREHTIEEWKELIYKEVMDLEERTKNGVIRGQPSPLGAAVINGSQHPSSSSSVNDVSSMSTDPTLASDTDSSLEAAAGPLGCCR

[45] = biological target: Mitogen-activated protein kinase kinase kinase 4 (Homo sapiens, UniProt Q9Y6R4); test: Inhibition of MAP3K4
[46] = biological target: Protein kinase C beta type (Homo sapiens, UniProt P05771); test: Inhibition of PRKCB
Chain of Protein kinase C beta type (P05771 whole entry): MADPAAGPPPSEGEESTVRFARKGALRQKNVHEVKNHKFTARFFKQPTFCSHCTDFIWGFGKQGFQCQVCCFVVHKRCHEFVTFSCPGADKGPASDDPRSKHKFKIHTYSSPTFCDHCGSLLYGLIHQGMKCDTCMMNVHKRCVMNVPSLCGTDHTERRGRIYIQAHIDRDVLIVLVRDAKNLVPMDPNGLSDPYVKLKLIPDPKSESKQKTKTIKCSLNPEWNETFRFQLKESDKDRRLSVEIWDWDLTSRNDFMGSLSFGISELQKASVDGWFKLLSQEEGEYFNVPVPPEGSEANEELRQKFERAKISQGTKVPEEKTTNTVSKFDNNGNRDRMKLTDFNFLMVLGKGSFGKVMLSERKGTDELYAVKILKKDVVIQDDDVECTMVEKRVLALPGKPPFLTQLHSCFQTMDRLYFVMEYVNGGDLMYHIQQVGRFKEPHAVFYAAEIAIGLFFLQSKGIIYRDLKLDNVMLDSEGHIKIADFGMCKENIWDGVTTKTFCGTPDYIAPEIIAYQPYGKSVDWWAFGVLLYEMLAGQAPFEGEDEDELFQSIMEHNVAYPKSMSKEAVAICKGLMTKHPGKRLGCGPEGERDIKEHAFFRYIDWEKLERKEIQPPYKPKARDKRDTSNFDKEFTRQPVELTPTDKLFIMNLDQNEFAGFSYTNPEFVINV

[47] = biological target: Cyclin-dependent kinase 7 (Homo sapiens, UniProt P50613); test: Inhibition of CDK7
[48] = biological target: Serine/threonine-protein kinase SIK3 (Homo sapiens, UniProt Q9Y2K2); test: Inhibition of KIAA0999

CC(C)(C)NS(=O)(=O)c1cncc(-c2ccn3nc(N)nc3c2)c1
clearance [1]: 1.6 mL/min/kg | IC50 [2]: > 10 µM | IC50 [3]: > 10 µM | AUC [4]: 15.3 µM·h | IC50 [5]: > 10 µM | IC50 [6]: > 10 µM | IC50 [7]: > 10 µM | Cmax [8]: 2.5 µM | IC50 [9]: > 10 µM | IC50 [10]: > 5.89 µM | inhibition in vivo at 10 mg/kg (Mus musculus [11]): 46% | IC50 [12]: > 10 µM | IC50 [13]: > 10 µM | Vd [14]: 1.3 L/kg | Activity (Mus musculus [15]): 94% | IC50 [16]: > 10 µM | IC50 [17]: > 10 µM | IC50 [18]: > 10 µM | IC50 [19]: > 10 µM | IC50 [20]: > 10 µM | IC50 (Aurora kinase A): > 10 µM | IC50 [21]: > 10 µM | IC50 (Activin receptor type-1): > 10 µM | IC50 [22]: > 10 µM | IC50 [23]: 0.0245 µM | IC50 [24]: > 10 µM | IC50 [25]: > 10 µM | IC50 [26]: > 10 µM | Cmax [27]: 5.9 µM | IC50 [28]: > 10 µM | IC50 [29]: > 10 µM | inhibition (INH) (Cytochrome P450 3A4): Active | IC50 [30]: > 10 µM | IC50 [31]: > 10 µM | IC50 [32]: > 10 µM | IC50 [33]: > 10 µM | IC50 [34]: > 5.89 µM | IC50 [35]: > 10 µM | IC50 [36]: > 10 µM | IC50 [37]: > 10 µM | IC50 [38]: > 10 µM | IC50 [39]: > 10 µM | IC50 (Wee1-like protein kinase): > 10 µM | IC50 [40]: > 10 µM | IC50 [41]: > 10 µM | inhibition (INH) (Cytochrome P450 2D6): Active | IC50 (LIM domain kinase 2): > 10 µM | IC50 (Activin receptor type-1B): > 10 µM | IC50 [42]: > 10 µM | IC50 [43]: > 10 µM | IC50 [44]: > 10 µM | IC50 [45]: > 10 µM | IC50 [46]: > 10 µM | IC50 [47]: > 10 µM | IC50 [48]: > 10 µM
